The values below come from patent EP0925070B1, “ANTIFUNGAL COMBINATION THERAPY” (MERCK & CO., INC., priority 1996, dated 1998).

The subject of data set [1] is C. albicans. Put plainly: drug interaction and efficacy study, disseminated candidiasis. The class given is in vivo. Particulars: Compound I 0.03 mg/kg and lower plus 0.03 mg/kg and lower of AmB. Here is the method:
(§1) Drug interaction and efficacy studies with Compound I combined with either AmB or FCZ against disseminated candidiasis, aspergillosis and cryptococcosis were performed.

The subject of data set [2] is A. fumigatus. The data set is described as follows: drug interaction and efficacy study, disseminated aspergillosis. The class given is in vivo. The settings on record: Compound I at 0.008 mg/kg combined with AmB at 0.12 mg/kg, versus the compounds administered alone. Here is the method:
as §1

In data set [3] the test system is disseminated candidiasis, aspergillosis and cryptococcosis. The data set is described as follows: drug interaction and efficacy studies in vivo, overall statements. The settings on record: for adverse effects: at high, use or lower concentrations. Here is the method: as §1
The test system of data set [4] is C. neoformans. The data set is described as follows: drug interaction and efficacy study, disseminated cryptococcosis. Format: in vivo. Particulars: combinations of Compound I and FCZ at certain concentrations. The method, then:
as §1

The test system of data set [5] is C. albicans. The data set is described as follows: broth microdilution antifungal susceptibility / drug combination testing in vitro (NCCLS protocol M27-T). Format: cell-based. An excerpt:
(§2) This has been shown using a broth microdilution technique which is the standard method for antifungal susceptibility testing proposed by the NCCLS (protocol M27-T). Sub-inhibitory concentrations of Compound I in combination with sub-inhibitory concentrations of AmB and sub-inhibitory concentrations of FCZ were employed. The minimal inhibitory concentrations (MICs) for AmB and Compound I were defined as the lowest drug concentration at which there was an absence of growth.
(§3) Additional drug combination testing in vitro was performed to evaluate combinations of Compound I with AmB and FCZ against clinical isolates. There was no antagonism evident between Compound I and AmB against C. albicans, A. fumigatus and C. neoformans. Fractional inhibitory indices (FIC) were approximately 0.50 or lower, indicative of additive or synergistic activity.

Data set [6] has as its system C. neoformans. Described as above. The class given is cell-based. Particulars: for activity against strains of C. neoformans in vitro: sub-inhibitory concentrations.
Description: as §2, §3

The subject of data set [7] is A. fumigatus. The data set is described as above. Format: cell-based.
Description: as §2, §3

Setting [8] is: Compound I in combination with AmB.

With `CCC(C)CC(C)CCCCCCCCC(=O)N[C@H]1C[C@@H](O)[C@@H](NCCN)NC(=O)[C@@H]2[C@@H](O)CCN2C(=O)[C@H]([C@H](O)CCN)NC(=O)[C@H]([C@H](O)[C@@H](O)c2ccc(O)cc2)NC(=O)[C@@H]2C[C@@H](O)CN2C(=O)[C@H]([C@@H](C)O)NC1=O` (stereo partly shown) [Compound I], the “efficacy against C. albicans” value in data set [1] is “more efficacious than either agent administered alone”. Moreover, in data set [2], the survival entry is listed as “Significant improvement in survival”. Also, the antagonism of efficacy entry in data set [3] (AmB combined with Compound I) and in data set [3] (FCZ combined with Compound I) was “no antagonism of efficacy” in each case. Further, the adverse effects result in data set [3] (Compound I combined with AmB) and in data set [3] (Compound I combined with FCZ) was “no adverse effects” in each case. The “efficacy against C. neoformans” value in data set [4] was “Beneficial effects on efficacy”. The activity in vitro result in data set [5] (setting [8]) and in data set [7] (setting [8]) was “enhanced activity” in each case. Also, the “antagonism between Compound I and AmB” value in data set [5] (in vitro, clinical isolates) was “no antagonism”; in data set [6] (in vitro, clinical isolates, C. neoformans), “no antagonism”; in data set [7] (in vitro, clinical isolates), “no antagonism”. In data set [6] (Compound I combined with fluconazole 0.25, 0.50 and 1.0 µg/ml, organism not printed), the “activity of fluconazole, CFU numbers” value is listed as “significantly enhanced the activity of fluconazole”. Moreover, the “activity against strains of C. neoformans in vitro” value in data set [6] (setting [8]) and in data set [6] (Compound I in combination with FCZ) was “enhanced activity” in each case. For the same compound, the “colony forming units (CFUs)” value in data set [6] (amphotericin B 0.0075, 0.015 and 0.03 µg/ml combined with Compound I 4, 8 and 16 µg/ml, organism not printed) is listed as “markedly reduced”.
